# Laboratory results taken from patent US6465447B1, “Substance having steroid-like structure, process for the production thereof and antitumor agents containing the same” (Hisamitsu Pharmaceuticals Co., Inc., priority 1998, dated 2002).
# Legend:
# [1] = test system: HeLa cells; assay: Tumor cell proliferation inhibitory activity, Alarmer Blue staining, HeLa cells; assay type: cell-based, human; details: conclusion from FIGS. 4-6 (Vero, HeLa, fibroblasts)
# Method: Here, Vero was […] derived from the kidney of a grivet, and HeLa was a tumor cell line derived from human cervix.
# These cells were grown in FCS-MRM medium. The respective cells were trypsinized and washed with a FCS-free RPMI culture medium three times. The cell density was adjusted to 50,000 cells/ml prior to the test. Each 200 μl of cell suspension was dropped into a 96-well plain-bottom plate.
# After one day, the culture medium was aspirated; and 200 μl of an active component solution was dropped into test wells, and 200 μl of DMSO dropped into control wells. The plate was incubated in a 5% CO2 atmosphere at 37° C. for 3 days. Ten μl of Alarmer Blue (staining agent) was added to each well, and incubation continued for additional 3 hrs. The tumor cell proliferation inhibitory activity was determined spectrophotometrically (570 and 600 nm) according to the following equation:
# Eq. Proliferation inhibitory activity=100%−[(absorbance of test well)/(absorbance of control well)×100%]
# [2] = test system: HeLa cells; assay: DNA cleavage examined against HeLa cells (chromatin aggregation, agarose gel electrophoresis); assay type: cell-based, human; details: conclusion from FIGS. 7-9
# Method: HeLa cells were prepared, adjusted to a cell density of 1×10^6 cells/ml in a φ10 cm culture dish and grown, into which 200 μl of the active fraction solution was dropped. Cells were harvested each 50 μl after 24, 48, and 72 hrs, and incubated in 400 μl of culture solution (containing Tris-EDTA, SDS and Proteinase K) in a 5% CO2 atmosphere at 37° C. overnight. NaCl was added to the cells and decomposed proteins were centrifuged; and the supernatant was precipitated in ethanol.
# The precipitate was suspended in Tris-EDTA buffer containing RnaseA. After 2 hrs, it was loaded onto agarose gel. After staining with ethidium bromide, it was electrophoresed and visualized under UV irradiation.
smiles,measurement,setting,value
CC(=O)OC1CC2(C)C(C(C)/C=C/C(C)C(C)C)CCC2(C)C2CC(O)C3(O)CC(O)CC(=O)C3(C)C12 (centres unmarked) [compound (II)],proliferation inhibitory activity specific to tumor cells (overall conclusion),[1],remarkable proliferation inhibitory activity specific to tumor cells
same,induction of apoptosis in the tumor cells,[2],induces apotosis
